The test system of series [1] is C. albicans ATCC 64124 (strain F). Description: Time-kill assay, azoles + compound 2. Format: cell-based, Candida albicans. To be noted: drug alone at the concentration of the 8×MICcombo sample; 24 h. The protocol: Each sample was incubated at 35° C. with shaking at 200 rpm. At various time points (0, 3, 6, 9, 12, and 24 h), 100 μL aliquots were taken from each sample and serially diluted (10-fold dilutions) in sterile ddH2O. 100 μL of each dilution was spread onto PDA plates and incubated at 35° C. for 48 h before colony counts were determined (FIGS. 2A-B). At the end of the 24-h experiment, 50 μL of 1 mM sterile resazurin solution was added to each sample for visual comparison of growth. Each experiment was performed in duplicate.

Series [2] relates to C. glabrata ATCC 2001 (strain H). Description: MIC and checkerboard assay, azoles + antihistamines. The series is classed as cell-based, Candida glabrata. The protocol: (§1) Determination of minimum inhibitory concentration (MIC) values. MIC values were recorded for all antifungals and antihistamines in order to determine the concentration range of compounds to be used in the checkerboard assays.
(§2) The MIC assays were done using the broth microdilution method as described in CLSI document M27-A3 with minor modifications. Yeast cultures were started by picking a colony from a PDA plate stored at 4° C. The colonies were grown in YEPD medium overnight at 35° C. with shaking at 200 rpm. In a 96-well plate compounds were diluted lengthwise along the plate in serial 2-fold dilutions in the RPMI 1640 medium. The yeast cultures were diluted in RPMI 1640 medium to an OD600 within the range of 0.12 and 0.15 (˜1×10^6 cells/mL). The fungal cells were further diluted by taking 25 μL of fungal cells and adding them to 10 mL of RPMI 1640 medium before adding 100 μL to plate (200 μL total volume). The plates were incubated at 35° C. for 48 h. Visual inspection of the wells for no growth was used to determine the MIC. All compounds were tested in duplicate (TABLES 6 and 7).
Checkerboard assays were done as previously described to determine the fractional inhibitory concentration index (FICI). 2-fold dilutions of the azole drug were made in RPMI 1640 medium lengthwise along the plate. For the antihistamine, 2-fold serial dilutions were made in sterile tubes with RPMI 1640 medium, then aliquoted into the plate. […] The maximal amount was used in the checkerboard assays if complete inhibition was not observed in the MIC assays. Cultures were started by picking a colony from a plate and growing in YEPD medium overnight at 35° C. with shaking at 200 rpm. Cultures were diluted in RPMI 1640 medium to an OD600 between 0.12 and 0.15 (˜1×10^6 cells/mL). Cells were then further diluted by taking 25 μL of cell suspension and adding to 10 mL of RPMI 1640 medium. After the drugs were added to the plate with 100 μL of medium, 100 μL of fungal cells were added. Plates were incubated at 35° C. for 48 h and visual inspection was used to determine wells with no growth. All experiments were carried out in duplicate. The FICI was calculated based on the formula below. The combinational effect of the 2 tested compounds were considered synergistic (SYN) if FICI≤0.5, additive (ADD) if 0.5<FICI≤4, and antagonistic if FICI>4 (TABLES 6-9).

Series [3] deals with C. albicans ATCC 10231 (strain B). Description: Time-kill assay, POS and EBA. Format: cell-based, Candida albicans. As to conditions: drug alone (POS at concentration used in MICcombination; NYT, AMB at 1×MIC), inoculum 10^5. The method, then:
(§3) The protocol for time-kill assays followed methods previously described with minor modifications. Yeast cultures were grown overnight in YEPD medium at 35° C. with shaking at 200 rpm. A working stock of fungal cells was made by diluting cultures in 1640 medium to an OD600 of 0.125 (˜1×10^6 CFU/mL). From the working stock, 100 μL of cells was added to 4.9 mL of RPMI 1640 medium in sterile culture tubes, making the starting fungal cell concentration ˜1×10^5 CFU/mL. Drug was then added to the fungal cells. […] Treated fungal cultures were incubated in the culture tubes at 35° C. with 200 rpm shaking for 24 h. Samples were aliquoted from the different treatments at regular time points (0, 3, 6, 9, 12, and 24 h) and plated in duplicate. For each time point, cultures were vortexed, 100 μL of culture was aspirated, and 10-fold serial dilutions were made in sterile ddH2O. From the appropriate dilutions, 100 μL of fungal suspension was spread on PDA plates and incubated at 35° C. for 48 h before colony counts were determined. At 24 h, 50 μL of 1 mM resazurin in phosphate buffered saline (PBS) was added to the treatments and incubated at 35° C. with 200 rpm shaking for 2 h in the dark for visual inspection. […] Experiments were performed in duplicate.

In series [4] the test system is C. albicans ATCC 64124 (strain F). Description: MIC and checkerboard assay, azoles + compounds 1-5. As to conditions: combination compound 2 + POS. Format: cell-based, Candida albicans. The protocol: These compounds were serially diluted (two-fold dilutions) horizontally on the plate in 100 μL of RPMI medium. A diluted yeast culture (25 μL of a fungal stock with OD600 of 0.125 in 10 mL of RPMI medium, which achieves a final inoculum size of around 1-5×10^3 CFU/mL) was plated across the plate (100 μL per well), making a final volume of 200 μL total per well.
The appropriate range of concentrations for each compound was determined based on their corresponding MIC values against each fungal strain. The inoculum size for yeast and filamentous fungi were the same as in the MIC experiments described in section 2.2. The 96-well plates were incubated at 35° C. for 48 h for yeasts and 72 h for the Aspergillus strain before visual inspection for growth. […] The combinational effect of the two tested compounds were considered synergistic (abbreviated SYN) if FICI<0.5, additive (abbreviated ADD) if 0.5<FICI<4, and antagonistic if FICI>4 (TABLES 2-4).

Series [5] relates to J774A.1 cells. Kind of series: Mammalian cytotoxicity assay, azoles and compound 2. An excerpt: David K. Orren (University of Kentucky, Lexington, Ky.) and Prof. David J. Feola (University of Kentucky, Lexington, Ky.), respectively.
The subject of series [6] is 13 Candida spp. strains (strains A-M). Kind of series: MIC and checkerboard assay, azoles + antihistamines, panel. Format: cell-based. The protocol: as §1, §2
Checkerboard assays were done as previously described to determine the fractional inhibitory concentration index (FICI). 2-fold dilutions of the azole drug were made in RPMI 1640 medium lengthwise along the plate. […] The FICI was calculated based on the formula below. […]

The test system of series [7] is C. glabrata ATCC 2001 (strain H). Kind of series: Time-kill assay, POS and EBA. Format: cell-based, Candida glabrata. As to conditions: drug alone (POS at concentration used in MICcombination; NYT, AMB at 1×MIC), inoculum 10^5. The method, then: as §3

As for `CC[C@@H]([C@H](C)O)n1ncn(-c2ccc(N3CCN(c4ccc(OC[C@@H]5CO[C@@](Cn6cncn6)(c6ccc(F)cc6F)C5)cc4)CC3)cc2)c1=O` [POS, posaconazole], the “increase in CFU/mL” value in series [1] was “about 1 order of magnitude”. Moreover, the MIC (commonly the lowest concentration found to suppress growth) was more than 32 µg/mL in series [2] (Nakaseomyces glabratus, ATCC2001, drug alone) and 0.25 to 1 µg/mL in series [6] (Candida, drug alone against sensitive fungal strains). Besides, the MIC in combination came to 0.5 µg/mL in series [2] (combination POS + EBA, MIC of the labelled drug) and 4 µg/mL in series [4] (MIC of the labelled drug). Moreover, the “fold decrease in MIC (combination vs alone)” value in series [2] (combination POS + EBA, decrease for the labelled drug) came to 64 fold. The “CFU/mL at 24 h” value in series [3] and in series [7] was 10^8 CFU/mL in each case. The “fold reduction in MIC (combination vs alone)” value in series [4] (reduction for the labelled drug) worked out at 8 fold. In addition, the results for the cell survival in series [5] (drug alone at 8 μg/mL) and in series [5] (drug alone at 16 μg/mL) were 80±9% and approximately 46±3%, respectively. Also, the “MIC in synergistic combinations” value in series [6] (synergistic POS + EBA combinations, MIC of the labelled drug) was 8 to 500 ng/mL.

The values are drawn from patent US20190015400A1, “Antifungal Compositions” (priority 2017, published 2019).
